Ends that are not written are not given here. amino‑PEG = not defined here
Test system: 2 anticorps monoclonaux reconnaissant 2 épitopes différents sur la calcitonine humaine
Assay: Immunoradiometric assay (IRMA) for human calcitonin using 2 monoclonal antibodies
Type: binding
Conditions: IRMA with 2 monoclonal antibodies
From the text: Un conjugué de polyéthylène glycol aminé couplé sur l'acide aspartique de la calcitonine humaine a été synthétisé suivant la méthode décrite à l'exemple 2. On dispose d'un dosage immunoradiométrique pour la Calcitonine humaine, utilisant 2 anticorps monoclonaux reconnaissant 2 épitopes différents sur la calcitonine humaine. Par ce dosage, le dérivé PEG-NH2-CTH n'est plus reconnu qu'à 0.4 % par rapport à la calcitonine humaine. Ceci signifie qu'au moins un épitope de la calcitonine humaine se trouve masqué par le couplage en position 15 d'une molécule de PEG. Il y a donc une modification de l'antigénicité de la calcitonine, de par son couplage au PEG, qui diminue fortement sa reconnaissance par des anticorps.

With “PEG NH2-CThumaine: conjugué de polyéthylène glycol aminé couplé sur l'acide aspartique (position 15) de la calcitonine humaine (CGNLSTCMLGTYTQD(amino‑PEG)FNKFHTFPQTAIGVGAP; ends and bridges not checked; UniProt P01258 85-116, looked up)” the “reconnaissance par rapport à la calcitonine humaine” value was 0.4%.
